According to ChEMBL document CHEMBL1201862, “PubChem BioAssay data set” (2004):
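96-well plates; 48 h exposure; 5 concentrations. Endpoints by linear interpolation between flanking doses. Not reached: highest tested concentration assigned. At the GI50, growth is halved.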 Activity calls are given as the source filed them. Rule as the data show it: active = GI50 up to about 1.1 µM and inactive = higher.

Legend:
Assay in all cases: growth of human tumour cells (NCI), 48 h
ACHN = test system: ACHN
CAKI-1 = test system: CAKI-1
HCT-15 = test system: HCT-15
K562 = test system: K562
LOX IMVI = test system: LOX IMVI
M14 = test system: M14
MOLT-4 = test system: MOLT-4
NCI-H23 = test system: NCI-H23
OVCAR-4 = test system: OVCAR-4
PC-3 = test system: PC-3
SF-268 = test system: SF-268
SF-295 = test system: SF-295
SK-MEL-2 = test system: SK-MEL-2
SN12C = test system: SN12C
SNB-75 = test system: SNB-75
SW-620 = test system: SW-620
TK-10 = test system: TK-10
UO-31 = test system: UO-31
MDA-N = test system: MDA-N

SMILES | GI50 (ACHN) | GI50 (CAKI-1) | GI50 (HCT-15) [µM] | GI50 (K562) | GI50 (LOX IMVI) | GI50 (M14) | GI50 (MOLT-4) | GI50 (NCI-H23) | GI50 (OVCAR-4) | GI50 (PC-3) | GI50 (SF-268) | GI50 (SF-295) | GI50 (SK-MEL-2) | GI50 (SN12C) | GI50 (SNB-75) | GI50 (SW-620) | GI50 (TK-10) | GI50 (UO-31) | GI50 (MDA-N)
CC(=O)O[C@H]1/C(=C/c2ccncc2)C[C@H]2[C@@H]3CC=C4C[C@@H](N5CCCC5)CC[C@]4(C)[C@H]3CC[C@]12C | 14.1 µM (inactive) | 14 µM (inactive) | 10.1 | 2.74 µM (inactive) | 2.32 µM (inactive) | 9.35 µM (inactive) | 11.5 µM (inactive) | 15.1 µM (inactive) | 15.9 µM (inactive) | 11.7 µM (inactive) | 15.1 µM (inactive) | 14.5 µM (inactive) | 15.5 µM (inactive) | 17 µM (inactive) | 14.7 µM (inactive) | 12.2 µM (inactive) | 14.6 µM (inactive) | 4.99 µM (inactive) | –
COCN1C(=O)[C@@H]2CCCN2C(=O)c2cc([N+](=O)[O-])ccc21 | 53.1 µM (inactive) | 76.7 µM (inactive) | > 100 | – | 26.3 µM (inactive) | > 100 µM (inactive) | – | 86.7 µM (inactive) | 76.9 µM (inactive) | 36.3 µM (inactive) | 35.9 µM (inactive) | 35.5 µM (inactive) | 64.1 µM (inactive) | > 100 µM (inactive) | 67.9 µM (inactive) | 65.8 µM (inactive) | > 100 µM (inactive) | 35.5 µM (inactive) | –
O=c1cc(N2CCCC2)[nH]c(=O)n1Cc1ccccc1 | > 100 µM (inactive) | > 100 µM (inactive) | > 100 | > 100 µM (inactive) | > 100 µM (inactive) | > 100 µM (inactive) | > 100 µM (inactive) | > 100 µM (inactive) | > 100 µM (inactive) | > 100 µM (inactive) | – | > 100 µM (inactive) | > 100 µM (inactive) | > 100 µM (inactive) | > 100 µM (inactive) | > 100 µM (inactive) | > 100 µM (inactive) | – | –
CCCCC1Cc2ccccc2-c2nc3ccccc3n21 (stereo not drawn) | 17.1 µM (inactive) | 15.5 µM (inactive) | 12.6 | 12.6 µM (inactive) | 16 µM (inactive) | 18.1 µM (inactive) | 13.6 µM (inactive) | 14.9 µM (inactive) | 12.9 µM (inactive) | 10.3 µM (inactive) | 17.3 µM (inactive) | 15 µM (inactive) | 16.4 µM (inactive) | – | – | 16.4 µM (inactive) | 17.4 µM (inactive) | 19.1 µM (inactive) | 15.1 µM (inactive)
NS(=O)(=O)c1cc(S(N)(=O)=O)c(NC(=O)Nc2ccc(Cl)c(Cl)c2)c(Cl)c1Cl | > 100 µM (inactive) | > 100 µM (inactive) | > 100 | > 100 µM (inactive) | > 100 µM (inactive) | > 100 µM (inactive) | > 100 µM (inactive) | > 100 µM (inactive) | > 100 µM (inactive) | > 100 µM (inactive) | > 100 µM (inactive) | > 100 µM (inactive) | > 100 µM (inactive) | > 100 µM (inactive) | – | > 100 µM (inactive) | > 100 µM (inactive) | > 100 µM (inactive) | > 100 µM (inactive)
COc1ccc(C(C)c2cc3c(cc2O)OCO3)cc1 (stereo not drawn) | 19.7 µM (inactive) | 25.2 µM (inactive) | 7.33 | 6 µM (inactive) | 13.2 µM (inactive) | 13.8 µM (inactive) | 9.02 µM (inactive) | 16.2 µM (inactive) | 31.3 µM (inactive) | 15.7 µM (inactive) | 14.9 µM (inactive) | 14.3 µM (inactive) | 14.9 µM (inactive) | 18.6 µM (inactive) | 20.3 µM (inactive) | 11.5 µM (inactive) | 16.3 µM (inactive) | 16.2 µM (inactive) | –
Nc1ccc2nc(-c3cccc(Cl)c3)cc(O)c2c1 | 5.93 µM (inactive) | – | 3.19 | – | – | 5.56 µM (inactive) | 3.55 µM (inactive) | 5.79 µM (inactive) | – | 2.47 µM (inactive) | – | – | – | 8.38 µM (inactive) | 2.15 µM (inactive) | 3.55 µM (inactive) | 2.65 µM (inactive) | – | –
